Source: the CheMixHub drug solubility set

Assay: xn = mol fraction of the nth substance listed, in the solute-free solvent

CC(=O)OC(c1ccccc1)C(Cl)(Cl)Cl (stereo not drawn) + CCO + O
solubility (g/100 g solution)
Details | 288.15 K | 293.15 K | 298.15 K | 303.15 K | 308.15 K | 313.15 K | 318.15 K | 323.15 K | 328.15 K
x2 = 0.4 | 0.237 | 0.492 | 0.787 | 1.3 | 1.94 | 2.85 | 3.79 | 4.63 | 5.65
x2 = 0.5 | 0.569 | 0.744 | 1.1 | 1.98 | 2.72 | 3.4 | 4.43 | 6.17 | 8.15
x2 = 0.6 | 1.11 | 1.43 | 1.77 | 3.24 | 4.3 | 5.43 | 7.34 | 9.98 | 13.9
x2 = 0.7 | 1.91 | 2.46 | 3 | 4.64 | 6.14 | 7.47 | 9.86 | 13.2 | 18
x2 = 0.8 | 2.52 | 3.05 | 4.06 | 6.07 | 7.63 | 9.55 | 12.1 | 16.4 | 21.2
x2 = 0.9 | 3.42 | 4.13 | 5.46 | 7.3 | 9.27 | 11.8 | 15.2 | 20 | 26.4

O=C(O)c1ccc(C(=O)O)o1 + O + COCCOCCOC
solubility (g/100 g solution)
Details | x2 = 0.1 | x2 = 0.2 | x2 = 0.3 | x2 = 0.4 | x2 = 0.5 | x2 = 0.6 | x2 = 0.7 | x2 = 0.8 | x2 = 0.9
303.15 K | 1.37 | 2.07 | 2.83 | 4.05 | 5.13 | 6.23 | 6.17 | 5.55 | 3.4
308.15 K | 1.42 | 2.15 | 2.96 | 4.22 | 5.35 | 6.45 | 6.42 | 5.78 | 3.72
313.15 K | 1.47 | 2.23 | 3.09 | 4.4 | 5.58 | 6.69 | 6.69 | 6.02 | 4.05
318.15 K | 1.53 | 2.34 | 3.23 | 4.59 | 5.79 | 6.96 | 6.97 | 6.3 | 4.34
323.15 K | 1.59 | 2.46 | 3.37 | 4.79 | 6.03 | 7.25 | 7.28 | 6.59 | 4.64
328.15 K | 1.67 | 2.56 | 3.53 | 5 | 6.29 | 7.62 | 7.59 | 6.96 | 4.91
333.15 K | 1.74 | 2.68 | 3.71 | 5.23 | 6.58 | 8.03 | 7.93 | 7.36 | 5.21
338.15 K | 1.84 | 2.83 | 3.88 | 5.46 | 6.96 | 8.47 | 8.33 | 7.78 | 5.51
343.15 K | 1.92 | 2.94 | 4.01 | 5.62 | 7.24 | 8.75 | 8.61 | 8.14 | 5.75
348.15 K | 2 | 3.1 | 4.17 | 5.84 | 7.52 | 9.16 | 9.15 | 8.46 | 6.05
353.15 K | 2.07 | 3.25 | 4.3 | 6.03 | 7.75 | 9.47 | 9.63 | 8.76 | 6.31

O=C1CCc2ccc(OCCCCN3CCN(c4cccc(Cl)c4Cl)CC3)cc2N1 + CCC(C)=O + CCCO
solubility (g/100 g solution)
Details | 278.15 K | 283.15 K | 288.15 K | 293.15 K | 298.15 K | 303.15 K | 308.15 K | 313.15 K | 318.15 K
x2 = 0.1 | 0.703 | 0.851 | 1.04 | 1.22 | 1.46 | 1.7 | 2.04 | 2.61 | 3.38
x2 = 0.2 | 1.03 | 1.2 | 1.44 | 1.69 | 1.98 | 2.38 | 2.87 | 3.56 | 4.45
x2 = 0.3 | 1.32 | 1.52 | 1.88 | 2.29 | 2.68 | 3.15 | 3.67 | 4.46 | 5.5
x2 = 0.4 | 1.6 | 1.86 | 2.24 | 2.74 | 3.21 | 3.77 | 4.34 | 5.18 | 6.36
x2 = 0.5 | 1.86 | 2.05 | 2.48 | 3.03 | 3.59 | 4.13 | 4.81 | 5.82 | 7.2
x2 = 0.6 | 2.04 | 2.25 | 2.67 | 3.18 | 3.75 | 4.3 | 5.16 | 6.36 | 7.89
x2 = 0.7 | 1.98 | 2.21 | 2.62 | 3.12 | 3.68 | 4.22 | 5.04 | 6.23 | 7.71
x2 = 0.8 | 1.84 | 2.09 | 2.47 | 2.96 | 3.48 | 4.03 | 4.72 | 5.83 | 7.15
x2 = 0.9 | 1.68 | 1.94 | 2.27 | 2.69 | 3.12 | 3.61 | 4.21 | 5.13 | 6.36

Nc1cncc(Cl)n1 + CN(C)C=O + O
solubility (g/100 g solution)
Details | 278.15 K | 283.15 K | 288.15 K | 293.15 K | 298.15 K | 303.15 K | 308.15 K | 313.15 K | 318.15 K | 323.15 K
x2 = 0.02666 | – | – | – | – | – | – | – | – | – | 0.136
x2 = 0.05806 | – | – | – | – | – | – | – | – | – | 0.386
x2 = 0.09556 | 0.711 | 0.836 | 0.963 | 1.12 | 1.29 | 1.5 | 1.71 | 1.95 | 2.21 | 2.52
x2 = 0.1412 | 1 | 1.18 | 1.36 | 1.59 | 1.83 | 2.13 | 2.43 | 2.78 | 3.15 | 3.58
x2 = 0.1978 | 1.13 | 1.35 | 1.6 | 1.86 | 2.18 | 2.55 | 2.94 | 3.38 | 3.84 | 4.38
x2 = 0.27 | 1.26 | 1.53 | 1.81 | 2.13 | 2.52 | 2.94 | 3.38 | 3.91 | 4.51 | 5.2
x2 = 0.3652 | 1.39 | 1.68 | 2.03 | 2.4 | 2.83 | 3.31 | 3.89 | 4.51 | 5.18 | 5.97
x2 = 0.4965 | 1.5 | 1.85 | 2.23 | 2.67 | 3.17 | 3.69 | 4.34 | 5.06 | 5.84 | 6.7
x2 = 0.6893 | 1.59 | 1.97 | 2.39 | 2.87 | 3.39 | 3.97 | 4.66 | 5.5 | 6.38 | 7.36

CC(=O)NC(CCC(N)=O)C(=O)O (stereo not drawn) + O + CCO
solubility (g/100 g solution)
Details | 293.15 K | 298.15 K | 303.15 K | 308.15 K | 313.15 K | 318.15 K
x2 = 0.2647 | 0.629 | 0.869 | 0.998 | 1.29 | 1.49 | 1.75
x2 = 0.4475 | 1.45 | 1.76 | 2.23 | 2.56 | 2.78 | 3.17
x2 = 0.7641 | 3.01 | 3.62 | 4.93 | 6.04 | 7.27 | 8.61
x2 = 0.8293 | 2.93 | 3.69 | 4.49 | 5.32 | 6.47 | 7.52
x2 = 0.9284 | 3.11 | 3.48 | 4.31 | 5.04 | 6.17 | 7.23

CCCCOc1ccc(C(=O)CCN2CCCCC2)cc1.Cl + CCO + CCOC(C)=O
solubility (g/100 g solution)
Details | 278.15 K | 283.15 K | 288.15 K | 293.15 K | 298.15 K | 303.15 K | 308.15 K | 313.15 K | 318.15 K | 323.15 K
x2 = 0.1 | 4.4 | 5.22 | 6.12 | 7.23 | 8.43 | 9.93 | 11.7 | 13.6 | 15.8 | 18.4
x2 = 0.2 | 6.73 | 7.77 | 8.92 | 10.3 | 11.8 | 13.6 | 15.6 | 17.8 | 20.4 | 23.2
x2 = 0.3 | 9.22 | 10.6 | 12 | 13.6 | 15.3 | 17.3 | 19.6 | 22 | 24.8 | 27.7
x2 = 0.4 | 11.9 | 13.4 | 15.1 | 17 | 18.9 | 21.2 | 23.7 | 26.4 | 29.3 | 32.4
x2 = 0.5 | 14.7 | 16.5 | 18.3 | 20.4 | 22.6 | 25.2 | 27.9 | 30.8 | 33.9 | 37
x2 = 0.6 | 17.6 | 19.7 | 21.7 | 24.1 | 26.5 | 29.3 | 32.2 | 35.2 | 38.4 | 41.7
x2 = 0.7 | 20.8 | 23.2 | 25.4 | 28 | 30.6 | 33.5 | 36.6 | 39.8 | 43.1 | 46.5
x2 = 0.8 | 24.2 | 26.8 | 29.2 | 32 | 34.7 | 37.8 | 41 | 44.2 | 47.6 | 51
x2 = 0.9 | 27.9 | 30.7 | 33.2 | 36.1 | 39 | 42.2 | 45.5 | 48.8 | 52.2 | 55.5

Nc1cncc(Cl)n1 + CC(O)CO + O
solubility (g/100 g solution)
Details | 278.15 K | 283.15 K | 288.15 K | 293.15 K | 298.15 K | 303.15 K | 308.15 K | 313.15 K | 318.15 K | 323.15 K
x2 = 0.02564 | – | – | – | – | – | – | – | – | – | 0.0333
x2 = 0.0559 | – | – | – | – | – | – | – | – | – | 0.0456
x2 = 0.09214 | 0.064 | 0.0784 | 0.093 | 0.112 | 0.133 | 0.158 | 0.185 | 0.216 | 0.25 | 0.292
x2 = 0.1364 | 0.0887 | 0.109 | 0.129 | 0.156 | 0.184 | 0.218 | 0.255 | 0.297 | 0.343 | 0.401
x2 = 0.1915 | 0.112 | 0.137 | 0.166 | 0.2 | 0.239 | 0.281 | 0.33 | 0.384 | 0.445 | 0.521
x2 = 0.2621 | 0.135 | 0.168 | 0.206 | 0.251 | 0.298 | 0.351 | 0.413 | 0.48 | 0.555 | 0.649
x2 = 0.3559 | 0.156 | 0.196 | 0.237 | 0.29 | 0.345 | 0.406 | 0.479 | 0.557 | 0.644 | 0.757
x2 = 0.4865 | 0.159 | 0.205 | 0.253 | 0.308 | 0.371 | 0.435 | 0.512 | 0.599 | 0.694 | 0.815
x2 = 0.6806 | 0.159 | 0.201 | 0.247 | 0.307 | 0.365 | 0.431 | 0.508 | 0.593 | 0.688 | 0.814
